The values that follow come from PMC9681730, “DeepPROTACs is a deep learning-based targeted degradation predictor for PROTACs” (Nature Communications, 2022).

The target in one assay is T1, VHL (Homo sapiens, UniProt P40337).
T1 construct: VHL (aa 54-213) in His-tagged VCB complex with EloB (aa 1-104) and EloC (aa 1-112); with EloB and EloC (VCB complex)
In words: ITC (reverse titration, purified VCB complex). Type of assay: binding.

The target of assay [1] is T2, ERα-LBD (estrogen receptor, ER) (Homo sapiens, UniProt P03372).
T2 construct: gene ESR1; ERα-LBD (aa 298–554)
T2 sequence (P03372 298-554): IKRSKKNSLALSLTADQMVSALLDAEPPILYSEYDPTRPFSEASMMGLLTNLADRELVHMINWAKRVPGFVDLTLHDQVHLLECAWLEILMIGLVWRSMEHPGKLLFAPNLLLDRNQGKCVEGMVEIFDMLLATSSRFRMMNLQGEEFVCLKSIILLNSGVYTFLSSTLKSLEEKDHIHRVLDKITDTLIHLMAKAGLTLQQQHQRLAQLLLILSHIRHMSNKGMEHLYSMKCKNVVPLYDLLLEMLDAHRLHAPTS
Nature of the assay: ITC (reverse titration, purified ERα-LBD). Type of assay: binding.

T1 sequence (P40337 54-213): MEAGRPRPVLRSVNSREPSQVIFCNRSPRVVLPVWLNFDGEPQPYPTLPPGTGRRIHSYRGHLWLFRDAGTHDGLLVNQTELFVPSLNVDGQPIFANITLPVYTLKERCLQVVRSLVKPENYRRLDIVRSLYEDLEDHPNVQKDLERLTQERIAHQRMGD
T1 sequence (Q15370 1-104 partner): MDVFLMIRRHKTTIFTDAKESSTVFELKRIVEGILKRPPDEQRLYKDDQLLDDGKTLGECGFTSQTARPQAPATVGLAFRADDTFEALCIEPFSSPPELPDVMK
T1 sequence (Q15369 whole entry partner, the tested form may be a part): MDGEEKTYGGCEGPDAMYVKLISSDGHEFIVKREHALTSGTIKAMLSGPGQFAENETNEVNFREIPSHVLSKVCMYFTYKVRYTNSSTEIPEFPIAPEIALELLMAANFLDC

As a reminder, the Kd is the concentration at which binding is half-saturated. Low values mean higher affinity, high ones lower affinity. As for `Cc1ncsc1-c1ccc(CNC(=O)[C@@H]2C[C@@H](O)CN2C(=O)[C@@H](NC(=O)CCCCCCCCCC(=O)NCCOc2ccc(C(=C(CCCl)c3ccccc3)c3ccc(O)cc3)cc2)C(C)(C)C)cc1` [PROTAC 8], the results for the Kd (on VHL; in assay [1]) were 4.37 µM and 2.14 µM, respectively.
